Source: paper PMC4355590, “A Kinetic Study of the Main Guaco Metabolites Using Syrup Formulation and the Identification of an Alternative Route of Coumarin Metabolism in Humans” (PLoS ONE, 2015)
Values belong to the molecule of their own block, whether it stands above or below them.

Assays:
[1] = Post-preparative stability of extracted samples; type: physicochemical; conditions: for Mean recovery: n = 8, ± SD
Experimental: (§1) Freeze-thawed, post-preparative and long-term stability assay samples were prepared and evaluated similar to the short-term stability samples. However, the freeze thawing assay was assessed after undergoing three freeze-thaw cycles (one freeze-thaw cycle per day on three consecutive days) and post-preparative assay, maintaining the extracted samples for 24 hours in the Sample Manager (20°C, transparent vials). The long-term stability of human plasma stored at -40°C was assessed at the end of the study (60 days).

[2] = Stability in human plasma: short-term, freeze-thaw and long-term; type: in vitro ADME; conditions: for Mean recovery: n = 8, ± SD
Experimental: The samples were vortexed for 2 min and then were kept at room temperature for 8 h. Afterward, the samples were spiked with 50 μL of IS solution and were vortexed (2 min) and submitted to the extraction procedures. The short-term stability was evaluated by comparing the mean recovery of the analytes and the IS obtained from stored samples with the mean values obtained with freshly prepared samples, at same concentration levels.
as §1

[3] = Stability of stock solutions and working standard solutions; type: physicochemical; conditions: for Mean recovery: n = 8, ± SD
Experimental: The stability of the stock solutions (1 mg/mL of each analyte and ISs) was evaluated after 30 days of storage in a refrigerator (4°C, amber bottles). The stored solutions were diluted with acetonitrile/water (70:30 v/v) to obtain the same concentration levels as the short-term stability assay. The stability of the stock solutions was evaluated by comparing the mean recovery of the analytes and IS obtained from stored samples to the mean values obtained with freshly prepared samples, at the same concentration levels. The stability of the working standard solutions was assessed using a procedure similar to that described for stock solution stability. […]

[4] = parameters: method as in PMID 7150456; conditions: cited from earlier work
[5] = system: endothelium-intact or denuded rat aortic rings; parameters: method as in PMID 15178370, PMID 11864765; conditions: cited from earlier work
[6] = Initial screening of bioavailability: 60 mL of guaco syrup orally; type: in vivo, human; conditions: 60 mL guaco syrup (17.6 mg COU, 1.1 mg OCA, 8.9 mg KAU), up to 600 min
Experimental: All the volunteers fasted for 8 h prior to the administration of guaco syrup and blood collection. […] The anticoagulant used was tetrasodium edetate. […] The pharmacokinetic analysis was performed using a non-compartmental model, considering an extravascular administration route and using WinNonlin Professional software, version 5.3. The relationships among the areas under the curves (r areas = AUC0-t/AUC0-inf), were used to confirm the suitability of the experimental design.

cyclooxygenase-2 = target: cyclooxygenase-2; parameters: method as in PMID 21211951; conditions: LPS-induced RAW264.7 macrophages; cited from earlier work
[7] = system: release of prostaglandin E2; parameters: method as in PMID 21211951; conditions: LPS-induced RAW264.7 macrophages; cited from earlier work
[8] = system: synthesis of nitric oxide; parameters: method as in PMID 21211951; conditions: LPS-induced RAW264.7 macrophages; read-out: IC50, inhibition of the synthesis of nitric oxide; cited from earlier work
[9] = system: carrageenan-induced paw edema; parameters: method as in PMID 21211951; conditions: mice, 50 mg/kg, 5 h after the induction of inflammation; cited from earlier work
[10] = post-preparative, internal standard level
[11] = post-preparative, internal standard level (500.0, 1000.0, 500.0 ng/mL)
[12] = Short-term, internal standard level
[13] = Short-term, internal standard level (500.0, 1000.0, 500.0 ng/mL)
[14] = 8 h at room temperature, internal standard level (6-methylcoumarin 500.0, Isoferulic acid 1000.0, Prednisone 500.0 ng/mL)
[15] = 8 h at room temperature, internal standard level, stored vs freshly prepared
[16] = 30 days at 4 °C (stock solutions), internal standard level (500.0, 1000.0, 500.0 ng/mL)
[17] = 30 days at 4 °C, internal standard level

Compound: C[C@]12C=CC(=O)C=C1CC[C@@H]1[C@@H]2C(=O)C[C@@]2(C)[C@H]1CC[C@]2(O)C(=O)CO [Prednisone, prednisone, reference compound]
RE [1, 10]: -4.14% | Mean recovery [1, 11]: 479.3 ± 16.9 ng/mL | RE [2, 12]: 0.43% | Mean recovery [2, 13]: 502.2 ± 11.1 ng/mL | Mean recovery [3, 14]: 470.5 ± 26.6 ng/mL | RE [3, 15]: -5.90% | Mean recovery [3, 16]: 497.0 ± 13.9 ng/mL

Compound: Cn1c(=O)c2[nH]cnc2n(C)c1=O [theophylline]
clearance [4]: 2.8 L/h

Compound: C=C1C[C@@]23CC[C@H]4[C@@](C)(CCC[C@@]4(C)C(=O)O)[C@@H]2CC[C@@H]1C3 [KAU, kaurenoic acid]
Mean recovery ([1]; post-preparative: extracted samples 24 hours at 20°C, high level (1250.0, 750.0, 750.0, 500.0 ng/mL)): 509.8 ± 6.6 ng/mL | Mean recovery ([1]; post-preparative: extracted samples 24 hours at 20°C, low level (50.0, 12.5, 25.0, 10.0 ng/mL)): 9.8 ± 0.4 ng/mL | RE ([1]; post-preparative, high level): 1.96% | RE ([1]; post-preparative, low level): -1.70% | Mean recovery ([2]; Long-term: plasma at -40°C, 60 days, high level (1250.0, 750.0, 750.0, 500.0 ng/mL)): 463.2 ± 12.3 ng/mL | Mean recovery ([2]; Long-term: plasma at -40°C, 60 days, low level (50.0, 12.5, 25.0, 10.0 ng/mL)): 8.8 ± 0.3 ng/mL | RE ([2]; Long-term, high level): -7.36% | RE ([2]; Long-term, low level): -11.70% | Mean recovery ([2]; Short-term: plasma at room temperature for 8 h, high level (1250.0, 750.0, 750.0, 500.0 ng/mL)): 498.9 ± 7.6 ng/mL | Mean recovery ([2]; Short-term: plasma at room temperature for 8 h, low level (50.0, 12.5, 25.0, 10.0 ng/mL)): 10.0 ± 0.3 ng/mL | RE ([2]; Short-term, high level): -0.22% | RE ([2]; Short-term, low level): 0.23% | RE ([2]; freeze–thaw cycles, high level): 0.49% | RE ([2]; freeze–thaw cycles, low level): -0.41% | Mean recovery ([2]; three freeze–thaw cycles, plasma, high level (1250.0, 750.0, 750.0, 500.0 ng/mL)): 502.5 ± 6.1 ng/mL | Mean recovery ([2]; three freeze–thaw cycles, plasma, low level (50.0, 12.5, 25.0, 10.0 ng/mL)): 9.9 ± 0.4 ng/mL | Mean recovery ([3]; 8 h at room temperature, high level (Coumarin 1250.0, 7-hydroxycoumarin 750.0, o-coumaric acid 750.0, Kaurenoic acid 500.0 ng/mL)): 516.6 ± 5.1 ng/mL | RE ([3]; 8 h at room temperature, high level, stored vs freshly prepared): 3.33% | Mean recovery ([3]; 8 h at room temperature, low level (Coumarin 50.0, 7-hydroxycoumarin 12.5, o-coumaric acid 25.0, Kaurenoic acid 10.0 ng/mL)): 10.2 ± 0.7 ng/mL | RE ([3]; 8 h at room temperature, low level, stored vs freshly prepared): 8.94% | Mean recovery ([3]; 30 days at 4 °C (stock solutions), high level (1250.0, 750.0, 750.0, 500.0 ng/mL)): 487.8 ± 34.9 ng/mL | Mean recovery ([3]; 30 days at 4 °C (stock solutions), low level (50.0, 12.5, 25.0, 10.0 ng/mL)): 9.75 ± 0.6 ng/mL | RE ([3]; 30 days at 4 °C, high level): 3.33% | RE ([3]; 30 days at 4 °C, low level): -2.46% | concentration promoting vasodilatory effects in rat aortas ([5]; endothelium-intact or denuded rings): greater than 10 mM | concentration with concentration-dependent activity on vascular smooth muscle ([5]; rat aortic rings pre-contracted with phenylephrine and potassium chloride): ≥ 10 µM | plasma levels after guaco syrup without spiking [6]: did not provide sufficient levels | IC50, expression of cyclooxygenase-2 activity (cyclooxygenase-2): 3.5 µg/mL | IC50 [7]: 106 µM | IC50 [8]: 51.7 µM | reduction of the swelling [9]: 34.4%

Now from value to molecule:

RE [1, 10]: -1.35% | Mean recovery [1, 11]: 986.5 ± 31.7 ng/mL | RE [2, 12]: -0.07% | Mean recovery [2, 13]: 999.3 ± 62.2 ng/mL | Mean recovery [3, 14]: 950.0 ± 75.2 ng/mL | RE [3, 15]: -5.00% | Mean recovery [3, 16]: 1037.5 ± 68.1 ng/mL | RE [3, 17]: 3.75%
Compound: COc1ccc(/C=C/C(=O)O)cc1O [Isoferulic acid, isoferulic acid, reference compound]

RE [1, 10]: -6.38% | Mean recovery [1, 11]: 468.1 ± 22.6 ng/mL | RE [2, 12]: 0.45% | Mean recovery [2, 13]: 501.1 ± 1.6 ng/mL | Mean recovery [3, 14]: 497.3 ± 3.8 ng/mL | RE [3, 15]: -0.54% | Mean recovery [3, 16]: 480.6 ± 46.6 ng/mL | RE [3, 17]: -3.89%
Compound: Cc1ccc2oc(=O)ccc2c1 [6-methylcoumarin, reference compound]
